Assay results taken from ChEMBL document CHEMBL4507281, “Data for DCP probe BI-4394” (2021).

Assays:
Conditions in all cases: Compound concentration 10.0 uM
[1] = biological target: D(1A) dopamine receptor (Homo sapiens) (UniProt P21728)
[2] = biological target: Casein kinase II subunit alpha (Homo sapiens) (UniProt P68400)
[3] = biological target: Receptor-type tyrosine-protein kinase FLT3 (Homo sapiens) (UniProt P36888)
[4] = biological target: T1, Tyrosine-protein kinase JAK3 (Homo sapiens) (UniProt P52333)
T1 sequence (whole entry): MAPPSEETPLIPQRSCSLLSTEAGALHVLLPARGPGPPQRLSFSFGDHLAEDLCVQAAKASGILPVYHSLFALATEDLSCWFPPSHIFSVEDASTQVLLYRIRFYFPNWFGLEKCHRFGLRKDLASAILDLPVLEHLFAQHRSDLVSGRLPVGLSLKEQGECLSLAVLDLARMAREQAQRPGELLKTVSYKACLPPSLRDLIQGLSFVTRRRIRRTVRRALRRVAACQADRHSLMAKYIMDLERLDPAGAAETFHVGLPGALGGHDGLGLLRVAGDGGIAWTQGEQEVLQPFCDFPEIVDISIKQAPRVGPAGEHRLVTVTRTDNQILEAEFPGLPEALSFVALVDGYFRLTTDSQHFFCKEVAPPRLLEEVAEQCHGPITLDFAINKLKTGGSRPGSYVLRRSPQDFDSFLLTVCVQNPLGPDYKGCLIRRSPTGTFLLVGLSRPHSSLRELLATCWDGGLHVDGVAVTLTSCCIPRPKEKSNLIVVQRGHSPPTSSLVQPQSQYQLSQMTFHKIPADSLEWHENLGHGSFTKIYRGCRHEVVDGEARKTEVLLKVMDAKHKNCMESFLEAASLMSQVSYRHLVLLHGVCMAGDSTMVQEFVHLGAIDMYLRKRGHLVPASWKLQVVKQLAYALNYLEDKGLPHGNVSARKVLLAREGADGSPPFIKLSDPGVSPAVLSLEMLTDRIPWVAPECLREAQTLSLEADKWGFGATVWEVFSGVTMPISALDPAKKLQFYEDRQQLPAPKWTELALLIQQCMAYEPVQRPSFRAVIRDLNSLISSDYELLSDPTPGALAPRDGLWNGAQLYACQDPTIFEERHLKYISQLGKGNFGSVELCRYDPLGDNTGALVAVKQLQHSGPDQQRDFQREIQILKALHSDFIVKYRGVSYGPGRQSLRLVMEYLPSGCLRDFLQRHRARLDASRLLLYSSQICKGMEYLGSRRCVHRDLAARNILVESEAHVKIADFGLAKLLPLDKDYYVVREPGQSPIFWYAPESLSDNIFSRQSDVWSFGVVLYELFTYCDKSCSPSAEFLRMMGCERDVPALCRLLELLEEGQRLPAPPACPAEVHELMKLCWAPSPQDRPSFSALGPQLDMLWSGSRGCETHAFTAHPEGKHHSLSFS

[5] = biological target: Tyrosine-protein kinase Lck (Homo sapiens) (UniProt P06239)
[6] = biological target: T2, Serine/threonine-protein kinase Nek1 (Homo sapiens) (UniProt Q96PY6)
T2 sequence (whole entry): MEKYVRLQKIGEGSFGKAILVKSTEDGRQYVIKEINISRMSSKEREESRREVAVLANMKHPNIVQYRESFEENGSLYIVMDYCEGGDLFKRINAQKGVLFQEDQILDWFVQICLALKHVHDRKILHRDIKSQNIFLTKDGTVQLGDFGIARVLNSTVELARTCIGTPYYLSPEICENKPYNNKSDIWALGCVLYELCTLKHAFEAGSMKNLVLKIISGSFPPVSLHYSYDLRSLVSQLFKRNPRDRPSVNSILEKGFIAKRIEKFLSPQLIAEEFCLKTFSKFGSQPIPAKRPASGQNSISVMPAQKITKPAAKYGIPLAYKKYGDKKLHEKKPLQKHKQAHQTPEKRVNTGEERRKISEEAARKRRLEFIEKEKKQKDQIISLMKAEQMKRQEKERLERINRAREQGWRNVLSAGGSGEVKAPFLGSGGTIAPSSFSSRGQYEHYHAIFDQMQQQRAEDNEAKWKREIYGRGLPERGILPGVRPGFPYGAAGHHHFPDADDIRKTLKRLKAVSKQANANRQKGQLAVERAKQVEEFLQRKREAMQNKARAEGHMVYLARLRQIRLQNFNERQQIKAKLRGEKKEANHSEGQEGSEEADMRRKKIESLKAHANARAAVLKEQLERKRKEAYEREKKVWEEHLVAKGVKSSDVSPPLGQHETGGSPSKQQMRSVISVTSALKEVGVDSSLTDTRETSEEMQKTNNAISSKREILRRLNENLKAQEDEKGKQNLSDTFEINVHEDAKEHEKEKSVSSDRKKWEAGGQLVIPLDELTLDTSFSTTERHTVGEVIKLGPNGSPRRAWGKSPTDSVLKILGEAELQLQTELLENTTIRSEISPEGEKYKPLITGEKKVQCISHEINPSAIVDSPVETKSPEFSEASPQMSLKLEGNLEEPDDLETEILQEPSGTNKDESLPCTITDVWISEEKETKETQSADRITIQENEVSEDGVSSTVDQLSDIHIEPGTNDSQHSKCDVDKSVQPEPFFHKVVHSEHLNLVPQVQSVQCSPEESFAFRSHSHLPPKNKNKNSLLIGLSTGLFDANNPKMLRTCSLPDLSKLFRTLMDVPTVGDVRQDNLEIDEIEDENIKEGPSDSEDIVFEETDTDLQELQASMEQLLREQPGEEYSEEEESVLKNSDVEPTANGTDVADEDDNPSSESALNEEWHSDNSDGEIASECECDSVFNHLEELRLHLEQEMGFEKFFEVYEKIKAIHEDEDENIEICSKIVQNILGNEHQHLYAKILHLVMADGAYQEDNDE

[7] = biological target: High affinity nerve growth factor receptor (Homo sapiens) (UniProt P04629)
[8] = biological target: Tyrosine-protein kinase SYK (Homo sapiens) (UniProt P43405)

Sequence of Receptor-type tyrosine-protein kinase FLT3 (Homo sapiens) (P36888 whole entry): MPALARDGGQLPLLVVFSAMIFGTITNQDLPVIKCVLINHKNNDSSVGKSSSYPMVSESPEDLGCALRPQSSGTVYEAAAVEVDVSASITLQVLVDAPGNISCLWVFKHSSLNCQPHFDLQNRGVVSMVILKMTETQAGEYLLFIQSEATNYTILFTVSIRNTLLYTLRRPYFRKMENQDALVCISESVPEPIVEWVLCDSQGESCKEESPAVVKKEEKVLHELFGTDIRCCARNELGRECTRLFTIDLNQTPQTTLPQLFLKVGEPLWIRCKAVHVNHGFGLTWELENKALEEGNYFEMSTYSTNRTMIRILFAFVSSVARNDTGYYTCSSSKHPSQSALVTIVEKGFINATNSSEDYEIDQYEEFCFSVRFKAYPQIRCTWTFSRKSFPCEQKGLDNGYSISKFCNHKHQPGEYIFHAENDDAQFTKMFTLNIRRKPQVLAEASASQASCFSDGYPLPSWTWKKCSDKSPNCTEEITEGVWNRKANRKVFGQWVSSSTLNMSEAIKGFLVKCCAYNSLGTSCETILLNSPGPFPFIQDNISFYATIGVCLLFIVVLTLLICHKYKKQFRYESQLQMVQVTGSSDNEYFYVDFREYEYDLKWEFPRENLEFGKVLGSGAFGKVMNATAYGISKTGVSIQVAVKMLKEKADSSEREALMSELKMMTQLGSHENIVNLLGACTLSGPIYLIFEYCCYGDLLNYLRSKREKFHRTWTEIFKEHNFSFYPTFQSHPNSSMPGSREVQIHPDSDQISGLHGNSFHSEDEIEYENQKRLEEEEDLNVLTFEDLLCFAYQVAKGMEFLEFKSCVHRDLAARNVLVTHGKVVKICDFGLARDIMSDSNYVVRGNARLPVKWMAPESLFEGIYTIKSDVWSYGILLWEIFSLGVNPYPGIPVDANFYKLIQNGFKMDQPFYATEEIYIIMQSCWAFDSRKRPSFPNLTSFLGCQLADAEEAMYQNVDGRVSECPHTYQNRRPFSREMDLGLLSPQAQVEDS
Sequence of High affinity nerve growth factor receptor (Homo sapiens) (P04629 33-796 limits assumed): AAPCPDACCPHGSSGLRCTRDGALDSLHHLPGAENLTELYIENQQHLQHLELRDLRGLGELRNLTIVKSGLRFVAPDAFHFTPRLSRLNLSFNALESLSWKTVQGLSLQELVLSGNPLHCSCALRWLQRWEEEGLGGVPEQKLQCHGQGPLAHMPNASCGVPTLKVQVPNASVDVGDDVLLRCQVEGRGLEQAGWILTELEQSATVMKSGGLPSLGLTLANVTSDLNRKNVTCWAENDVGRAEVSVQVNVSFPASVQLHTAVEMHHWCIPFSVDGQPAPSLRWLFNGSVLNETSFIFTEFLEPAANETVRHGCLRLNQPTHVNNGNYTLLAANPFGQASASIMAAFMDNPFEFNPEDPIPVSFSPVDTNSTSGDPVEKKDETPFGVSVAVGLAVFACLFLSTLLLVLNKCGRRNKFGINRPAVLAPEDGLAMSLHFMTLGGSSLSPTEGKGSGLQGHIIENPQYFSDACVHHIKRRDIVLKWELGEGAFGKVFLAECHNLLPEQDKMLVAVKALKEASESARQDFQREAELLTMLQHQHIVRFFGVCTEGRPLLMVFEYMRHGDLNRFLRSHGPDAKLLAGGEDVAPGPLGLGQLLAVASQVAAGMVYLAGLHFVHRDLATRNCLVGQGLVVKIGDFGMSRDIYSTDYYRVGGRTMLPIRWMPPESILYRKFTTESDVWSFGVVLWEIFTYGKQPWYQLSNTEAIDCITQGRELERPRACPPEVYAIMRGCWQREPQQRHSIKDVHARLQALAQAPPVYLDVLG
Sequence of Tyrosine-protein kinase Lck (Homo sapiens) (P06239 2-509 limits assumed): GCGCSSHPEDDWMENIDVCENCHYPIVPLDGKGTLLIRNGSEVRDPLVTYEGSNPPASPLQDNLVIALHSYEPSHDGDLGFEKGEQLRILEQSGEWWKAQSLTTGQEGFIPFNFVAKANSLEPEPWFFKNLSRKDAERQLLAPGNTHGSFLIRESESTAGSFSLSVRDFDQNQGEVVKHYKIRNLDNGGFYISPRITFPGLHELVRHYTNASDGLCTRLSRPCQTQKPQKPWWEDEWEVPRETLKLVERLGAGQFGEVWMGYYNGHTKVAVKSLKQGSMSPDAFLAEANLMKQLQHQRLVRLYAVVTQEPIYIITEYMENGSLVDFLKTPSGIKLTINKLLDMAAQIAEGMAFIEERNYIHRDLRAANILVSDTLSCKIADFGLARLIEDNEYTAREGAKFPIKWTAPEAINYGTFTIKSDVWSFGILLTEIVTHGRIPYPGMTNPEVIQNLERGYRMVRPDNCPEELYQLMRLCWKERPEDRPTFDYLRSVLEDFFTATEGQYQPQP
Sequence of D(1A) dopamine receptor (Homo sapiens) (P21728 whole entry): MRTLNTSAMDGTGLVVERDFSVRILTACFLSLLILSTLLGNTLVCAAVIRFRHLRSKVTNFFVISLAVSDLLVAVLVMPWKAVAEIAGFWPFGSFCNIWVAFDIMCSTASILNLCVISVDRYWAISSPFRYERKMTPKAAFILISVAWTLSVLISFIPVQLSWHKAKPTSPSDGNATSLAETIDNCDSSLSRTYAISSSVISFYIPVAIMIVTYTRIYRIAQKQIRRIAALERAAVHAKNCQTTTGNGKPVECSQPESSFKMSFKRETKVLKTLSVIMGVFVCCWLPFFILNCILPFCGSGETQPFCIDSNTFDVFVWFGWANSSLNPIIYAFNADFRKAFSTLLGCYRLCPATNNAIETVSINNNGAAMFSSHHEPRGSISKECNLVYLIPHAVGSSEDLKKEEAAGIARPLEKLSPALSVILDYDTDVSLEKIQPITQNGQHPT
Sequence of Casein kinase II subunit alpha (Homo sapiens) (P68400 whole entry, looked up): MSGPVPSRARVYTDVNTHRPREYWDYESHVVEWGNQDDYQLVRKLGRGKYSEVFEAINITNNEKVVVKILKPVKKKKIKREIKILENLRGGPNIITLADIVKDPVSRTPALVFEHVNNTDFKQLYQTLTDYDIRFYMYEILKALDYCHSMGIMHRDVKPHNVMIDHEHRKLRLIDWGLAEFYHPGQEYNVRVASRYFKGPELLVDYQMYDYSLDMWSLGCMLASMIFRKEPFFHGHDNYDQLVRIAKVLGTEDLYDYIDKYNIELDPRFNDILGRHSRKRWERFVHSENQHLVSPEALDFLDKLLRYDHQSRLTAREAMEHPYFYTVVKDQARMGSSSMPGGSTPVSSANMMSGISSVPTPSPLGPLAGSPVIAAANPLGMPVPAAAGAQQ

Compound: CCOC(=O)c1cc2cc(-c3cc(C(=O)NCc4ccc(C(=O)O)cc4)nn3C)ccc2[nH]1 [BI 4394]
- inhibition [1]: -5.02%
- residual activity [2]: 89%
- residual activity [3]: 64%
- residual activity [4]: 44%
- residual activity [5]: 68%
- residual activity [6]: 49%
- residual activity [7]: 190%
- residual activity [8]: 56%
